Reference: patent publication US11192889B2, “Tetrahydronaphthyridinepentanamide integrin antagonists” (The Rockefeller University, priority 2016, dated 2021)
Values joined by “and” are separate entries in the source; they are usually repeats but may differ in a detail not shown here. Equal entries are not always repeated.

Key:
HEK-293-αVβ3 cells [1] = biological target: T1, HEK-293-αVβ3 cells (Homo sapiens, UniProt P05106+P06756); test: AP5 Binding Assay; assay type: cell-based; conditions: for activation at 10 µM: relative to AP5 expression induced by cilengitide, read-out: AP5 expression induced at the highest concentration; for EC50: concentration inducing 50% of the AP5 expression induced by 1 μM cilengitide
T1 sequence (P05106 whole entry): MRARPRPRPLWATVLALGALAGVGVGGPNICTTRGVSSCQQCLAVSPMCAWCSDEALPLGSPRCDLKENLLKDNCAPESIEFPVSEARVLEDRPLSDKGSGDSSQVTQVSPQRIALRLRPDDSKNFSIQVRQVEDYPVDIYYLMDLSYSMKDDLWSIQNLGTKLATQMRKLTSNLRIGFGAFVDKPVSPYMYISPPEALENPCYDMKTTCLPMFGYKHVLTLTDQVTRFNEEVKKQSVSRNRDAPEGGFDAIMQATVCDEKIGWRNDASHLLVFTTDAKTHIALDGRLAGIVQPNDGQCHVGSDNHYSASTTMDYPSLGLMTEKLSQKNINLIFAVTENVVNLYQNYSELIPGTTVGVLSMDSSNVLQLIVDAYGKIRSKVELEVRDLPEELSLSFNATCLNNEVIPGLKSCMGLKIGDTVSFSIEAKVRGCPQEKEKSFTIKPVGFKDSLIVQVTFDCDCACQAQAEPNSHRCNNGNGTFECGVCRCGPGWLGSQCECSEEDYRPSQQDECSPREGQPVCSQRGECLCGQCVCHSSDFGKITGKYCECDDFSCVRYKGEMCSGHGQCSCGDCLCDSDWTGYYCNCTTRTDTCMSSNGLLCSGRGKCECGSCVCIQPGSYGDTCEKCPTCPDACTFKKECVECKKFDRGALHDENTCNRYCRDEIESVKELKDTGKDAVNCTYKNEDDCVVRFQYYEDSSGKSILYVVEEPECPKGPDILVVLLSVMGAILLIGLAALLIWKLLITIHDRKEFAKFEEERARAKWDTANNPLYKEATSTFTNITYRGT
T1 sequence (P06756 whole entry): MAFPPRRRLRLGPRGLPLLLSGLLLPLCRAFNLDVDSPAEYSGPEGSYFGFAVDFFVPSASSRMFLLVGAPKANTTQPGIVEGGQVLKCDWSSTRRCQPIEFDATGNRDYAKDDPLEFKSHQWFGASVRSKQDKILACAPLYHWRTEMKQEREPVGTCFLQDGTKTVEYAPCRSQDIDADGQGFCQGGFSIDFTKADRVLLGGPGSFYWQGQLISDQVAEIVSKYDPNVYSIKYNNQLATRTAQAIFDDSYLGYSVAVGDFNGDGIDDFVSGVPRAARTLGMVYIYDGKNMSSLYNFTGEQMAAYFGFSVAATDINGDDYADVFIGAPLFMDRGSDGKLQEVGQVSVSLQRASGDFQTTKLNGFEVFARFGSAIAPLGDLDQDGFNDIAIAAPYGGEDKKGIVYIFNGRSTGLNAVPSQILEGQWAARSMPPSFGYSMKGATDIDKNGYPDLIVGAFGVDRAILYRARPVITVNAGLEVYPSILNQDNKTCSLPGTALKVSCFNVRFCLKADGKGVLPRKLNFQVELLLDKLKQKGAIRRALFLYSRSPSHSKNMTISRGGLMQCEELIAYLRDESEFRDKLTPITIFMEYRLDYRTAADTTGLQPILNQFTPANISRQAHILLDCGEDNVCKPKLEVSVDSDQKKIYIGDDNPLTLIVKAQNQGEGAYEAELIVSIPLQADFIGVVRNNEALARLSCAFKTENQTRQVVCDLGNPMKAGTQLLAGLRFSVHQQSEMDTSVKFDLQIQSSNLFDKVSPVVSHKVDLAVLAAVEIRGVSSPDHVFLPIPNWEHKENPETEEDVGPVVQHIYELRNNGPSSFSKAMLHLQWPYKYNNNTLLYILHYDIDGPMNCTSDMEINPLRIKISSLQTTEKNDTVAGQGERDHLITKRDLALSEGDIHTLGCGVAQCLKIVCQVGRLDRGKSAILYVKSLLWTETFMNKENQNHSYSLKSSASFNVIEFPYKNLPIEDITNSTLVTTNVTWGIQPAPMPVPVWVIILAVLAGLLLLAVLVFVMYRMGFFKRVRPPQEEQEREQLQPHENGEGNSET
Source text: (§1) HEK-293 Cells Expressing αVβ3. HEK-293 cells were transfected using lipofectamine 2000 (Invitrogen #11668030) with the cDNA for αV using the pEF1/V5-His A vector and the cDNA for β3 using the vector pcDNA3.1. Cells expressing αVβ3 were identified by their reaction with murine monoclonal antibodies (mAbs) LM609 and 7E3, and stable cell lines were established by repetitive sorting using LM609. […] HEK-293-αVβ3 cells for assays are counted in an automated cell counter (ADVIA 120) and adjusted to values appropriate for each assay.
AP5 Binding Assay. HEK-293-αVβ3 cells are harvested using 0.05% trypsin 0.5 mM EDTA, washed with HBMT once, and resuspended in HBMT containing 1 mM Mg2+ and 2 mM Ca2+. The cells are counted and adjusted to 0.5×10^6 cells per sample. The compound to be tested and fluorescently labeled mAb AP5 (either Alexa 488 or Alexa 674; 10 μg/mL) are added and incubated for 30 minutes at 37° C. The cells are then washed and analyzed by flow cytometry (BD FACSCalibur) at the appropriate wavelength for detecting the AP5 fluorophore. In each assay, cilengitide (1 μM) and 10 mM EDTA are included as positive controls and untreated cells are used as the negative control. The concentration of the test compound required to induce the expression of 50% of the AP5 expression induced by cilengitide is calculated and defined as the EC50. The EC50 for cilengitide was determined based on the expression induced by EDTA.

HEK-293-αVβ3 cells [2] = biological target: T1, HEK-293-αVβ3 cells; test: αVβ3 Cell Adhesion to Fibrinogen Assay; assay type: cell-based; design: IC50; other: dose reducing by 50% the adhesion of HEK-293-αVβ3 cells to fibrinogen; untreated cells 100% adhesion, 10 mM EDTA 0%; conditions: for IC50: dose reducing by 50% the adhesion of HEK-293-αVβ3 cells to fibrinogen, separate determinations listed
Source text: as §1
αVβ3 Cell Adhesion to Fibrinogen Assay. Polystyrene 96-well microtiter plates (Costar, 3590) are precoated with 3.5 μg/mL of purified fibrinogen (Enzyme Research Laboratories) in 0.15 M NaCl, 0.01 M Tris/HCL, pH 7.4 for 1 hour at 37° C. The wells are then washed and incubated with HEPES-Buffered Modified Tyrode's solution (HBMT; 0.128 M NaCl, 10 mM HEPES, 12 mM NaHCO3, 0.4 mM NaH2PO4, 2.7 mM KCl, 0.35% bovine serum albumin (Fisher), 0.1% glucose, pH 7.4) for 1 hour at room temperature or overnight at 4° C. Wells are washed with HBMT containing 1 mM Mg2+ and 2 mM Ca2+ and then 50 μL of HEK-293-αVβ3 cells that have been pretreated with the compound to be tested for 20 minutes at room temperature are added to each well at a concentration of 3,000 cells/μL. After 30-32 minutes the wells are washed with HBMT containing Ca2+ and Mg2+ three times and then the adherent cells are lysed and the acid phosphatase activity that is released is measured by: 1. adding phosphatase substrate (Sigma EC 224-246-5) at 2 mg/mL in 0.1 M Na citrate, pH 5.6, 0.1% triton X-100 for 1 hour at room temperature; 2. stopping the reaction by adding 50 μL of 2 M NaOH; and 3. analyzing the samples in a spectrophotometer at 405 nm. In each assay, 10 mM EDTA is used as a positive control and untreated cells are used as a negative control. The IC50 is the dose of test compound that reduces by 50% the adhesion of the HEK-293-αVβ3 cells, taking the results with untreated cells as 100% and the results in the presence of EDTA as 0%. In some instances more than one IC50 determination was made, in which case, results of separate determinations are reported. IC50's were not determined for all compounds in the table; for some of these test compounds the inhibition at specific doses are reported. In some instances, the test compound produced a greater reduction than 10 mM EDTA, and these are shown as negative numbers.

Compound | activation at 10 µM (HEK-293-αVβ3 cells [1]) [%] | EC50 (HEK-293-αVβ3 cells [1]) [µM] | inhibition at specific dose 0.1 (HEK-293-αVβ3 cells [2]; dose 0.1 (table in μM), untreated cells 100% adhesion, 10 mM EDTA 0%) [%] | IC50 (HEK-293-αVβ3 cells [2])
O=C(CCCCc1ccc2c(n1)NCCC2)NCCC(NC(=O)OCC1CCC(F)(F)CC1)C(=O)O (stereo not shown) [Example 64] | 21 | > 10 | – | 248 nM and 359 nM
O=C(CCCCc1ccc2c(n1)NCCC2)NCCC(NC(=O)OCc1ccccc1F)C(=O)O (stereo not shown) [Example 65] | 13 | > 10 | – | 120 nM
O=C(CCCCc1ccc2c(n1)NCCC2)NCCC(NC(=O)OCc1cccc(F)c1)C(=O)O (stereo not shown) [Example 66] | 12 | > 10 | – | 533 nM
O=C(CCCCc1ccc2c(n1)NCCC2)NCCC(NC(=O)OCc1ccc(F)cc1)C(=O)O (stereo not shown) [Example 67] | 13 | > 10 | – | 320 nM
O=C(CCCCc1ccc2c(n1)NCCC2)NCCC(NC(=O)OCc1ccc(F)c(F)c1)C(=O)O (stereo not shown) [Example 68] | 9 | > 10 | – | 320 nM
O=C(CCCCc1ccc2c(n1)NCCC2)NCCC(Nc1nc2ccccc2o1)C(=O)O (stereo not shown) [Example 69, 2-(1,3-benzoxazol-2-ylamino)-4-[5-(5,6,7,8-tetrahydro-1,8-naphthyridin-2-yl)pentanoylamino]butanoic acid] | 7 | > 10 | – | 211 nM
O=C(CCCCc1ccc2c(n1)NCCC2)NCCC(Nc1nc2ccccc2s1)C(=O)O (stereo not shown) [Example 70, 2-(1,3-Benzothiazol-2-ylamino)-4-[5-(5,6,7,8-tetrahydro-1,8-naphthyridin-2-yl)pentanoylamino]butanoic acid] | 6 | > 10 | – | 525 nM
COc1cccc(C(=O)NC(CCNC(=O)CCCCc2ccc3c(n2)NCCC3)C(=O)O)n1 (stereo not shown) [Example 71, 2-[(6-methoxypyridine-2-carbonyl)amino]-4-[5-(5,6,7,8-tetrahydro-1,8-naphthyridin-2-yl)pentanoylamino]butanoic acid] | 9 | > 10 | – | 1140 nM
O=C(CCCCc1ccc2c(n1)NCCC2)NCCC(NC(=O)c1ncc(-c2ccccc2)s1)C(=O)O (stereo not shown) [Example 72, 2-[(5-phenylthiazole-2-carbonyl)amino]-4-[5-(5,6,7,8-tetrahydro-1,8-naphthyridin-2-yl)pentanoylamino]butanoic acid] | 6 | > 10 | – | 181 nM and 90.4 nM and 185 nM
O=C(CCCCc1ccc2c(n1)NCCC2)NCCC(NC(=O)c1nc2ccccc2n1CC1CC1)C(=O)O (stereo not shown) [Example 73, 2-[[1-(cyclopropylmethyl)benzimidazole-2-carbonyl]amino]-4-[5-(5,6,7,8-tetrahydro-1,8-naphthyridin-2-yl)pentanoylamino]butanoic acid] | 2.5 | > 10 | – | 502 nM and 142 nM

More lines, now with the values ahead:

activation at 10 µM (HEK-293-αVβ3 cells [1]) [%] | EC50 (HEK-293-αVβ3 cells [1]) [µM] | inhibition at specific dose 0.1 (HEK-293-αVβ3 cells [2]; dose 0.1 (table in μM), untreated cells 100% adhesion, 10 mM EDTA 0%) [%] | IC50 (HEK-293-αVβ3 cells [2]) | Compound
22 | > 10 | 40 | 1330 nM | O=C(CCCCc1ccc2c(n1)NCCC2)NCCC(NS(=O)(=O)c1cccnc1)C(=O)O (stereo not shown) [Example 44]
16 | > 10 | – | < 100 nM | CC1(C)[C@@H]2CC[C@]1(CS(=O)(=O)NC(CCNC(=O)CCCCc1ccc3c(n1)NCCC3)C(=O)O)C(=O)C2 (stereo partly shown) [Example 50]
10 | > 10 | – | 579 nM | COc1ccc(COC(=O)NC(CCNC(=O)CCCCc2ccc3c(n2)NCCC3)C(=O)O)cc1 (stereo not shown) [Example 60]
14 | > 10 | – | 586 nM | O=C(CCCCc1ccc2c(n1)NCCC2)NCCC(NC(=O)OCCc1ccccc1)C(=O)O (stereo not shown) [Example 61]
12 | > 10 | – | 628 nM | O=C(CCCCc1ccc2c(n1)NCCC2)NCCC(NC(=O)OCC(F)(F)C(F)(F)F)C(=O)O (stereo not shown) [Example 62]
16 | > 10 | – | 491 nM | COc1ccccc1COC(=O)NC(CCNC(=O)CCCCc1ccc2c(n1)NCCC2)C(=O)O (stereo not shown) [Example 63]
